Measurements published in patent US20250034125A1, “COMPOUNDS AND USES THEREOF” (JANSSEN PHARMACEUTICA NV, priority 2019, published 2025).

How the values were obtained:
SCD1 = biological target: T1, SCD1 (Homo sapiens, UniProt O00767); test: Growth inhibition of yeast (ole1Δ) expressing human SCD1 as the sole desaturase; assay type: cell-based; details: yeast strain with SCD1 plasmid, OD600 growth read at 40 h; read-out: SCD1 IC50
T1 construct: host or cells: Saccharomyces cerevisiae ole1Δ strain (W303 pdr1Δ pdr3Δ background), plasmid pRS316, TDH3 promoter
T1 sequence (O00767 1-359): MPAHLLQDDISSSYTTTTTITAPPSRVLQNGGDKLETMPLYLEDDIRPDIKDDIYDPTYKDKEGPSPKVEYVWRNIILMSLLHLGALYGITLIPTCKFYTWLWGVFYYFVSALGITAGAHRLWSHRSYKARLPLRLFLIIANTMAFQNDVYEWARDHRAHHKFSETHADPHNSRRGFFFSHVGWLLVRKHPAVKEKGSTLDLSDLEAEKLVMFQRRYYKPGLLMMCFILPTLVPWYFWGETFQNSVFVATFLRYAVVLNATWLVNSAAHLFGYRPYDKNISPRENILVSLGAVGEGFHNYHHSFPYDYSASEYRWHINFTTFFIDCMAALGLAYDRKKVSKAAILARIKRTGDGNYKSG

SCD5 = biological target: T2, SCD5 (Homo sapiens, UniProt Q86SK9); test: Growth inhibition of yeast (ole1Δ) expressing human SCD5 as the sole desaturase; assay type: cell-based; details: yeast strain with SCD5 plasmid, OD600 growth read at 40 h; read-out: SCD5 IC50
T2 construct: host or cells: Saccharomyces cerevisiae ole1Δ strain (W303 pdr1Δ pdr3Δ background), plasmid pRS316, TDH3 promoter
T2 sequence (Q86SK9 1-330): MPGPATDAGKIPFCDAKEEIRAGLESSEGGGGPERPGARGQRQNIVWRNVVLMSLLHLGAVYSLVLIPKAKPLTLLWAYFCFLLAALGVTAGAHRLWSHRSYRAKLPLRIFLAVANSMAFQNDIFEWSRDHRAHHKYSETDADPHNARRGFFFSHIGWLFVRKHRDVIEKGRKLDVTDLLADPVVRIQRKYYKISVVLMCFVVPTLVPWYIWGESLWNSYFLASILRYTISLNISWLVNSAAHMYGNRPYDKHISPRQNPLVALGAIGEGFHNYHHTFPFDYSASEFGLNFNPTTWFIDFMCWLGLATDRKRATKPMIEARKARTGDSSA

Structure (SMILES) | IC50 (SCD1) [µM] | IC50 (SCD5) [µM]
Cn1nc(-c2noc(N3CCC(Cc4cc(F)cc(F)c4)CC3)n2)ccc1=O [Compound 122, 6-(5-(4-(3,5-difluorobenzyl)piperidin-1-yl)-1,2,4-oxadiazol-3-yl)-2-methylpyridazin-3(2H)-one] | 13.6 | 1.73
Cn1nc(-c2noc(N3CCC(Cc4ccc(F)c(F)c4)CC3)n2)ccc1=O [Compound 123, 6-(5-(4-(3,4-difluorobenzyl)piperidin-1-yl)-1,2,4-oxadiazol-3-yl)-2-methylpyridazin-3(2H)-one] | 4.9 | 1.4
Cn1nc(-c2cnc(N3CCC(Cc4cc(F)cc(F)c4)CC3)o2)ccc1=O [Compound 124, 6-(2-(4-(3,5-difluorobenzyl)piperidin-1-yl)oxazol-5-yl)-2-methylpyridazin-3(2H)-one] | 26 | 0.14
CCn1nc(NC(=O)N2CCC(Cc3cc(F)cc(F)c3)CC2)ccc1=O [Compound 125, 4-(3,5-difluorobenzyl)-N-(1-ethyl-6-oxo-1,6-dihydropyridazin-3-yl)piperidine-1-carboxamide] | 4.96 | 1.15
Cc1cc(NC(=O)N2CCC(Oc3cc(F)cc(F)c3)CC2)nn(C)c1=O [Compound 126] | 0.04 | 0.04
Cc1cc(NC(=O)N2CCC(Oc3ccc(F)c(F)c3)CC2)nn(C)c1=O [Compound 127] | 0.2 | 0.2
Cc1cc(NC(=O)N2CCC(Cc3cc(F)cc(F)c3)CC2)nn(C)c1=O [Compound 128] | 0.05 | 0.02
Cc1cc(NC(=O)N2CCC(Cc3ccc(F)c(F)c3)CC2)nn(C)c1=O [Compound 129] | 0.31 | 0.08
Cn1nc(NC(=O)N2CCN(Cc3cccc(Cl)c3)CC2)ccc1=O [Compound 130, 4-(3-chlorobenzyl)-N-(1-methyl-6-oxo-1,6-dihydropyridazin-3-yl)piperazine-1-carboxamide] | > 45 | 15.8
Cn1nc(NC(=O)N2CCC=C(c3ccc(Cl)cc3)CC2)ccc1=O [Compound 133, 4-(4-chlorophenyl)-N-(1-methyl-6-oxo-1,6-dihydropyridazin-3-yl)-2,3,6,7-tetrahydro-1H-azepine-1-carboxamide] | > 45 | > 45
Cn1nc(NC(=O)N2CC=C(c3ccc(Cl)cc3)CCC2)ccc1=O [Compound 134, 5-(4-chlorophenyl)-N-(1-methyl-6-oxo-1,6-dihydropyridazin-3-yl)-2,3,4,7-tetrahydro-1H-azepine-1-carboxamide] | > 45 | > 45
